Calls of active or inactive are those of the source. No cut-off for these calls is given here.
Biological target: Cyclin-dependent kinase 2 (Homo sapiens) (UniProt P24941)
Experiment: Binding affinity to human CDK2

Q: For O=c1c(O)c(-c2ccc(O)c(O)c2)oc2c(O[C@@H]3O[C@H](CO)[C@@H](O)[C@H](O)[C@H]3O)c(O)cc(O)c12, which Activity is on record?
A: Active

Reference: ChEMBL document CHEMBL1140807, “A flavonoid gossypin binds to cyclin-dependent kinase 2” (Bioorg Med Chem Lett, 2008)
